The subject of one test is LU99A. Description: relative viability (nuclei count vs DMSO), 5 days (fraction); higher = more cells survive. The conditions noted are these: first compound 0.253 µM. Put shortly:
(§1)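 Values are medians from duplicate plates. Each reflects relative viability, defined as the nuclei count of treated wells over that of vehicle wells. Lung cancer cell lines in 1536-well plates were pin-tool dosed one day after seeding with one drug alone or with a fixed anchor-drug dose plus five library-drug doses (not always all listed) in √10 steps, then fixed, stained and imaged at 4× after 5 days.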
For `Nc1cccc2c1CN(C1CCC(=O)NC1=O)C2=O` (stereo unspecified) [Lenalidomide] + N=C(N)NC(=N)NCCc1ccccc1 [Phenformin] (partner 250 µM), the relative viability was found to be 0.76.

Regarding `Nc1cccc2c1CN(C1CCC(=O)NC1=O)C2=O` (stereo unspecified) [Lenalidomide] + Cc1cc(Nc2cc(N3CCN(C)CC3)nc(Sc3ccc(NC(=O)C4CC4)cc3)n2)n[nH]1 [Tozasertib] (partner 0.1 µM), the relative viability came to 0.32.

In the case of `Nc1cccc2c1CN(C1CCC(=O)NC1=O)C2=O` (stereo unspecified) [Lenalidomide] + CC(=O)c1c(C)c2cnc(Nc3ccc(N4CCNCC4)cn3)nc2n(C2CCCC2)c1=O [Palbociclib] (partner 0.5 µM), the relative viability amounted to 0.409.

As for `Nc1cccc2c1CN(C1CCC(=O)NC1=O)C2=O` (stereo unspecified) [Lenalidomide] + O=C(CCCCCCC(=O)Nc1ccccc1)NO [Vorinostat] (partner 1 µM), the relative viability was determined as 0.461.

`Nc1cccc2c1CN(C1CCC(=O)NC1=O)C2=O` (stereo unspecified) [Lenalidomide] + COc1cccc2cc(-c3nc([C@H]4CC[C@H](C(=O)O)CC4)n4ncnc(N)c34)[nH]c12 [OSI-027] (partner 0.5 µM) displayed a relative viability of 0.31.

Staying with this test, now noted: first compound 0.8 µM.
Take `Nc1cccc2c1CN(C1CCC(=O)NC1=O)C2=O` (stereo unspecified) [Lenalidomide] + N=C(N)NC(=N)NCCc1ccccc1 [Phenformin] (partner 250 µM): the relative viability came out at 0.875.

The molecule `Nc1cccc2c1CN(C1CCC(=O)NC1=O)C2=O` (stereo unspecified) [Lenalidomide] + Cc1cc(Nc2cc(N3CCN(C)CC3)nc(Sc3ccc(NC(=O)C4CC4)cc3)n2)n[nH]1 [Tozasertib] (partner 0.1 µM) returned a relative viability of 0.284.

Regarding `Nc1cccc2c1CN(C1CCC(=O)NC1=O)C2=O` (stereo unspecified) [Lenalidomide] + CC(=O)c1c(C)c2cnc(Nc3ccc(N4CCNCC4)cn3)nc2n(C2CCCC2)c1=O [Palbociclib] (partner 0.5 µM), the relative viability is 0.39.

`Nc1cccc2c1CN(C1CCC(=O)NC1=O)C2=O` (stereo unspecified) [Lenalidomide] + O=C(CCCCCCC(=O)Nc1ccccc1)NO [Vorinostat] (partner 1 µM) gave a relative viability of 0.425.

As for `Nc1cccc2c1CN(C1CCC(=O)NC1=O)C2=O` (stereo unspecified) [Lenalidomide] + COc1cccc2cc(-c3nc([C@H]4CC[C@H](C(=O)O)CC4)n4ncnc(N)c34)[nH]c12 [OSI-027] (partner 0.5 µM), the relative viability stood at 0.324.

The same test, now with this note: first compound 2.53 µM.
`Nc1cccc2c1CN(C1CCC(=O)NC1=O)C2=O` (stereo unspecified) [Lenalidomide] + N=C(N)NC(=N)NCCc1ccccc1 [Phenformin] (partner 250 µM) registered a relative viability of 0.96.

The molecule `Nc1cccc2c1CN(C1CCC(=O)NC1=O)C2=O` (stereo unspecified) [Lenalidomide] + Cc1cc(Nc2cc(N3CCN(C)CC3)nc(Sc3ccc(NC(=O)C4CC4)cc3)n2)n[nH]1 [Tozasertib] (partner 0.1 µM) registered a relative viability of 0.29.

In the case of `Nc1cccc2c1CN(C1CCC(=O)NC1=O)C2=O` (stereo unspecified) [Lenalidomide] + CC(=O)c1c(C)c2cnc(Nc3ccc(N4CCNCC4)cn3)nc2n(C2CCCC2)c1=O [Palbociclib] (partner 0.5 µM), the relative viability stood at 0.361.

`Nc1cccc2c1CN(C1CCC(=O)NC1=O)C2=O` (stereo unspecified) [Lenalidomide] + O=C(CCCCCCC(=O)Nc1ccccc1)NO [Vorinostat] (partner 1 µM) showed a relative viability of 0.559.

Molecule `Nc1cccc2c1CN(C1CCC(=O)NC1=O)C2=O` (stereo unspecified) [Lenalidomide] + COc1cccc2cc(-c3nc([C@H]4CC[C@H](C(=O)O)CC4)n4ncnc(N)c34)[nH]c12 [OSI-027] (partner 0.5 µM) gave a relative viability of 0.292.

The test is the same for the next values; noted with them: first compound 8 µM.
`Nc1cccc2c1CN(C1CCC(=O)NC1=O)C2=O` (stereo unspecified) [Lenalidomide] + N=C(N)NC(=N)NCCc1ccccc1 [Phenformin] (partner 250 µM) came in with a relative viability of 0.564.

The molecule `Nc1cccc2c1CN(C1CCC(=O)NC1=O)C2=O` (stereo unspecified) [Lenalidomide] + Cc1cc(Nc2cc(N3CCN(C)CC3)nc(Sc3ccc(NC(=O)C4CC4)cc3)n2)n[nH]1 [Tozasertib] (partner 0.1 µM) registered a relative viability of 0.276.

As to `Nc1cccc2c1CN(C1CCC(=O)NC1=O)C2=O` (stereo unspecified) [Lenalidomide] + CC(=O)c1c(C)c2cnc(Nc3ccc(N4CCNCC4)cn3)nc2n(C2CCCC2)c1=O [Palbociclib] (partner 0.5 µM), the relative viability is 0.286.

On to `Nc1cccc2c1CN(C1CCC(=O)NC1=O)C2=O` (stereo unspecified) [Lenalidomide] + O=C(CCCCCCC(=O)Nc1ccccc1)NO [Vorinostat] (partner 1 µM), for which the relative viability came out at 0.263.

The molecule `Nc1cccc2c1CN(C1CCC(=O)NC1=O)C2=O` (stereo unspecified) [Lenalidomide] + COc1cccc2cc(-c3nc([C@H]4CC[C@H](C(=O)O)CC4)n4ncnc(N)c34)[nH]c12 [OSI-027] (partner 0.5 µM) had a relative viability of 0.285.

The next test deals with NCI-H1355. Described as above. The following applies: first compound 0.253 µM. Summed up: as §1
In turn, `Nc1cccc2c1CN(C1CCC(=O)NC1=O)C2=O` (stereo unspecified) [Lenalidomide] + N=C(N)NC(=N)NCCc1ccccc1 [Phenformin] (partner 250 µM) gave a relative viability of 0.485.

Molecule `Nc1cccc2c1CN(C1CCC(=O)NC1=O)C2=O` (stereo unspecified) [Lenalidomide] + Cc1cc(Nc2cc(N3CCN(C)CC3)nc(Sc3ccc(NC(=O)C4CC4)cc3)n2)n[nH]1 [Tozasertib] (partner 0.1 µM) had a relative viability of 0.578.

Molecule `Nc1cccc2c1CN(C1CCC(=O)NC1=O)C2=O` (stereo unspecified) [Lenalidomide] + CC(=O)c1c(C)c2cnc(Nc3ccc(N4CCNCC4)cn3)nc2n(C2CCCC2)c1=O [Palbociclib] (partner 0.5 µM) gave a relative viability of 0.397.

In turn, `Nc1cccc2c1CN(C1CCC(=O)NC1=O)C2=O` (stereo unspecified) [Lenalidomide] + O=C(CCCCCCC(=O)Nc1ccccc1)NO [Vorinostat] (partner 1 µM) showed a relative viability of 0.608.

In turn, `Nc1cccc2c1CN(C1CCC(=O)NC1=O)C2=O` (stereo unspecified) [Lenalidomide] + COc1cccc2cc(-c3nc([C@H]4CC[C@H](C(=O)O)CC4)n4ncnc(N)c34)[nH]c12 [OSI-027] (partner 0.5 µM) had a relative viability of 0.449.

Staying with this test, now noted: first compound 0.8 µM.
In turn, `Nc1cccc2c1CN(C1CCC(=O)NC1=O)C2=O` (stereo unspecified) [Lenalidomide] + CC(=O)c1c(C)c2cnc(Nc3ccc(N4CCNCC4)cn3)nc2n(C2CCCC2)c1=O [Palbociclib] (partner 0.5 µM) gave a relative viability of 0.372.

On to `Nc1cccc2c1CN(C1CCC(=O)NC1=O)C2=O` (stereo unspecified) [Lenalidomide] + O=C(CCCCCCC(=O)Nc1ccccc1)NO [Vorinostat] (partner 1 µM), for which the relative viability was found to be 0.455.

Staying with this test, now noted: first compound 2.53 µM.
The molecule `Nc1cccc2c1CN(C1CCC(=O)NC1=O)C2=O` (stereo unspecified) [Lenalidomide] + N=C(N)NC(=N)NCCc1ccccc1 [Phenformin] (partner 250 µM) gave a relative viability of 0.462.

For `Nc1cccc2c1CN(C1CCC(=O)NC1=O)C2=O` (stereo unspecified) [Lenalidomide] + Cc1cc(Nc2cc(N3CCN(C)CC3)nc(Sc3ccc(NC(=O)C4CC4)cc3)n2)n[nH]1 [Tozasertib] (partner 0.1 µM), the relative viability was found to be 0.559.

Turning to `Nc1cccc2c1CN(C1CCC(=O)NC1=O)C2=O` (stereo unspecified) [Lenalidomide] + CC(=O)c1c(C)c2cnc(Nc3ccc(N4CCNCC4)cn3)nc2n(C2CCCC2)c1=O [Palbociclib] (partner 0.5 µM), the relative viability amounted to 0.413.

In turn, `Nc1cccc2c1CN(C1CCC(=O)NC1=O)C2=O` (stereo unspecified) [Lenalidomide] + O=C(CCCCCCC(=O)Nc1ccccc1)NO [Vorinostat] (partner 1 µM) showed a relative viability of 0.707.
